Target: T1, human TLR6 (Homo sapiens, UniProt Q9Y2C9)
T1 construct: expressed in transfected cells; host or cells: Namalwa cells (ATCC CRL-1432), co-transfected with pIFN-α1-luc and pCI-TLR6, G418-selected
T1 sequence (Q9Y2C9 32-796): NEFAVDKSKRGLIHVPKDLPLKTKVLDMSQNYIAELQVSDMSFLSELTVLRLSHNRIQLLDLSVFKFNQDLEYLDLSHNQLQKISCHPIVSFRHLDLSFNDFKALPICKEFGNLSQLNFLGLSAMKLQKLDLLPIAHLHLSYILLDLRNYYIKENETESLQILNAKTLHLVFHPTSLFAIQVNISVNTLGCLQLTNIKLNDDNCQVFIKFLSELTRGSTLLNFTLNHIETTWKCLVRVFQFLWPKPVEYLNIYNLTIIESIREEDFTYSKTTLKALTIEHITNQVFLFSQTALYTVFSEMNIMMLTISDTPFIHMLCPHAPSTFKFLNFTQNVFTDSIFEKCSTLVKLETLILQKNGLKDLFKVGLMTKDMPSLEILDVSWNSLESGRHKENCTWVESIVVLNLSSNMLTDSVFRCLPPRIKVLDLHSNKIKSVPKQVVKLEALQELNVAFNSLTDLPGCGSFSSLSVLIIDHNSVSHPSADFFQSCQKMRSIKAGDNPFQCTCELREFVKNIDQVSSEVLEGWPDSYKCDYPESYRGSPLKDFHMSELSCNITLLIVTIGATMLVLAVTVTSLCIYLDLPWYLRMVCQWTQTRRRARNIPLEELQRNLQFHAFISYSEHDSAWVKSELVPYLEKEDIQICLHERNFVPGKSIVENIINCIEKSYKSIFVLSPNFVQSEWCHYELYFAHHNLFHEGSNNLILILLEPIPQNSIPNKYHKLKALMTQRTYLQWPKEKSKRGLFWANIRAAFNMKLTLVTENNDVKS
Experiment: Luciferase induction off of the IFN-α1 promoter in pIFN-α1-luc/pCI-TLR6 co-transfected Namalwa cells
Type: cell-based
Details: IRM compound 10 μM, 18 hours, compared to DMSO negative control, representative experiment
From the text: The vector pIFN-α1-luc was constructed by inserting BglII sites at both ends of the human IFN-α1 promoter (SEQ ID NO:21). The BglII sites were inserted into the IFN-α1 promoter and the sequence was amplified using the primer pair of SEQ ID NO:22 and SEQ ID NO:23. The amplified IFN-α1 promoter was cloned into the pGL3-Enhancing vector (Promega Corp., Madison, Wis.) at the BglII site.
The vector pCI-TLR6 was constructed by inserting SEQ ID NO:11 (GenBank Accession No. NM 006068), which includes the human TLR6 coding sequence, into the pCI-neo mammalian expression vector (Promega Corp.) at the vector's NheI and MluI restriction sites.
Burkitt's Lymphoma lymphoblastoid Namalwa cells (ATCC Accession No. CRL-1432) were grown by incubation in culture medium overnight. Cells were harvested by centrifugation in a tabletop centrifuge (1200 RPM for 5 minutes), and then resuspended in phosphate buffered sucrose to a concentration of 1.3×10^7 cells per milliliter.
For each transfection, a 750 μL aliquot of the cell suspension was placed in an electroporation cuvette with 4 mm gaps. 10 μg of the pIFN-α1-luc vector and 10 μg of the pCI-TLR6 vector were added to the electroporation cuvette. The cell and vector mixtures were incubated at room temperature for 5 minutes. The cells were electroporated using a BioRad Gene Pulser (BioRad Laboratories, Hercules, Calif.) set to at 500 μF capacitance and […], then incubated at room temperature for 5 minutes.
The electroporated cells were suspended in 10 mLs of culture medium and incubated overnight. Dead cells and debris were removed after 24 hours using a MACS Dead Cell Removal kit (Miltenyi Biotec, Auburn, Calif.). Cells were resuspended in 10 mLs of culture medium and incubated for an additional 24 hours.
Transfected cells were selected by adding G418 (Promega Corp., Madison, Wis.) to a final concentration of 1 mg/mL and incubating the cells for seven days.
The selected transfected cells were counted and resuspended to a concentration of 1×10^6 cell per mL in culture medium. 100 μl aliquots of cells were placed in the wells of a white-walled, white-bottomed 96-well plate (Corning, Inc. Corning, N.Y.). 1.0 μL of an IRM compound from Table 1 (prepared at 1 mM in 100% DMSO) was added to some cell aliquots so that the final concentration of IRM compound was 10 μM. As a positive control, some cell aliquots were incubated with Sendai virus instead of IRM compound. As a negative control, some cell aliquots were incubated with DMSO without IRM compound. In all cases, the cells were incubated for 18 hours.
The plates were equilibrated to room temperature before 1 volume of reconstituted LucLight Plus (Packard Instruments, Meriden, Conn.) was added to each aliquot of cells. Each well of the plate was read on an LJL Analyst (LJL Biosystems, Inc., Sunnyvale, Calif.) set with a 5 minute dark adapt. The data are expressed as the fold increase in luciferase induction off of the IFN-α1 promoter in cell aliquots incubated with the indicated stimulant compared to the negative control in which the cell aliquots were incubated with only DMSO.

| Fold Increase in Luciferase Induction [fold] | Compound |
| --- | --- |
| 3.6 | CCOCc1nc2c(N)nc3c(c2n1CC(C)(C)O)CCCC3 [IRM1, 4-amino-2-ethoxymethyl-α,α-dimethyl-6,7,8,9-tetrahydro-1H-imidazo[4,5-c]quinoline-1-ethanol] |
| 2.7 | Cc1nc2c(N)nc3ccccc3c2n1CC(C)(C)O [IRM2, 4-amino-α,α,2-trimethyl-1H-imidazo[4,5-c]quinoline-1-ethanol] |
| 2.6 | CCCCc1nc2c(N)nc3ccccc3c2n1CCCCNS(C)(=O)=O [IRM3, N-[4-(4-amino-2-butyl-1H-imidazo[4,5-c]quinolin-1-yl)butyl]methanesulfonamide] |
| 4.0 | Nc1nc2ccccc2c2c1ncn2CCOCCCc1cccnc1 [IRM4, 1-{2-[3-(3-pyridyl)-propoxy]ethyl}-1H-imidazo[4,5-c]quinolin-4-amine] |
| 3.2 | CCCCc1nc2c(N)nc3cccnc3c2n1CC(C)C [IRM5, 2-butyl-1-(2-methylpropyl)-1H-imidazo[4,5-c][1,5]naphthyridin-4-amine] |
| 2.9 | CCCCc1nc2c(N)nc3c(c2n1CC(C)C)NCCC3 [IRM6, 2-butyl-6,7,8,9-tetrahydro-1-(2-methylpropyl)-1H-imidazo[4,5-c][1,5]naphthyridin-4-amine] |
| 3.2 | COCCc1nc2c(N)nc3ccccc3c2n1CCCCNC(=O)c1ccc(-n2cccc2)nc1 [IRM7, N^3-{4-[4-amino-2-(2-methoxyethyl)-1H-imidazo[4,5-c]quinolin-1-yl]butyl}-6-(1H-1-pyrrolyl)nicotinamide] |
| 2.3 | CCc1nc2c(N)nc3ccccc3c2n1CCCCCS(C)(=O)=O [IRM8, 2-ethyl-1-[5-(methylsulfonyl)-pentyl]-1H-imidazo[4,5-c]quinolin-4-amine] |

From patent publication US20040132079A1, “Assays relating to Toll-like receptor activity” (3M Innovative Properties Company, priority 2002, published 2004)
